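Five concentrations, 48 hours, 96-well plates. GI50 = concentration required for 50% inhibition of growth.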 The source made the active and inactive calls. No stated cut-off is given here; in the data, active = GI50 up to about 1.1 µM and inactive = higher.
Tests used:
Assay in all cases: DTP human tumour cell line panel, 48 h
SF-295 = test system: SF-295
OVCAR-5 = test system: OVCAR-5
HT-29 = test system: HT-29
A549 = test system: A549
HCT-116 = test system: HCT-116
SR = test system: SR
OVCAR-4 = test system: OVCAR-4
ACHN = test system: ACHN
NCI-H522 = test system: NCI-H522
TK-10 = test system: TK-10
SK-MEL-5 = test system: SK-MEL-5
SNB-75 = test system: SNB-75
MOLT-4 = test system: MOLT-4
SW-620 = test system: SW-620
KM12 = test system: KM12
COLO 205 = test system: COLO 205
UACC-257 = test system: UACC-257
CCRF-CEM = test system: CCRF-CEM
SF-539 = test system: SF-539
HOP-92 = test system: HOP-92

| Compound | GI50 (SF-295) | GI50 (OVCAR-5) | GI50 (HT-29) | GI50 (A549) | GI50 (HCT-116) | GI50 (SR) | GI50 (OVCAR-4) | GI50 (ACHN) | GI50 (NCI-H522) | GI50 (TK-10) | GI50 (SK-MEL-5) | GI50 (SNB-75) | GI50 (MOLT-4) | GI50 (SW-620) | GI50 (KM12) | GI50 (COLO 205) | GI50 (UACC-257) | GI50 (CCRF-CEM) | GI50 (SF-539) | GI50 (HOP-92) |
| --- | --- | --- | --- | --- | --- | --- | --- | --- | --- | --- | --- | --- | --- | --- | --- | --- | --- | --- | --- | --- |
| C=C(C)CN(CC#N)CC(=C)C | > 100 µM (inactive) | > 100 µM (inactive) | > 100 µM (inactive) | > 100 µM (inactive) | > 100 µM (inactive) | > 100 µM (inactive) | > 100 µM (inactive) | > 100 µM (inactive) | > 100 µM (inactive) | > 100 µM (inactive) | > 100 µM (inactive) | > 100 µM (inactive) | > 100 µM (inactive) | > 100 µM (inactive) | > 100 µM (inactive) | > 100 µM (inactive) | > 100 µM (inactive) | > 100 µM (inactive) | – | – |
| CCOC(=O)NC(=O)c1cn(C2OC(CO)C(O)C2O)c(=O)[nH]c1=O (configuration not stated) | > 100 µM (inactive) | > 100 µM (inactive) | > 100 µM (inactive) | > 100 µM (inactive) | > 100 µM (inactive) | > 100 µM (inactive) | > 100 µM (inactive) | > 100 µM (inactive) | > 100 µM (inactive) | – | > 100 µM (inactive) | > 100 µM (inactive) | > 100 µM (inactive) | > 100 µM (inactive) | > 100 µM (inactive) | – | > 100 µM (inactive) | – | > 100 µM (inactive) | – |
| COc1cccc(OCC(=N/NC(=O)c2ccncc2)/N=C/c2cccnc2)c1 | > 100 µM (inactive) | > 100 µM (inactive) | > 100 µM (inactive) | > 100 µM (inactive) | > 100 µM (inactive) | – | > 100 µM (inactive) | > 100 µM (inactive) | > 100 µM (inactive) | > 100 µM (inactive) | – | > 100 µM (inactive) | 49.7 µM (inactive) | > 100 µM (inactive) | > 100 µM (inactive) | > 100 µM (inactive) | > 100 µM (inactive) | > 100 µM (inactive) | > 100 µM (inactive) | 21 µM (inactive) |
| CCCC(=O)N[C@@H](Cc1cc(I)c(O)c(I)c1)C(=O)NCCCNCCCCNCCCNC(=O)[C@@H](N)CCCN=C(N)N | > 10 µM (inactive) | – | > 100 µM (inactive) | > 100 µM (inactive) | 67 µM (inactive) | > 100 µM (inactive) | – | 40.1 µM (inactive) | 11.2 µM (inactive) | > 100 µM (inactive) | 36.6 µM (inactive) | – | 71.6 µM (inactive) | > 100 µM (inactive) | 55 µM (inactive) | 40.6 µM (inactive) | > 100 µM (inactive) | > 100 µM (inactive) | 10.4 µM (inactive) | – |
| CCOC(=O)C(C(=O)c1ccccc1C(=O)OC)=P(c1ccccc1)(c1ccccc1)c1ccccc1 | > 10 µM (inactive) | > 10 µM (inactive) | > 10 µM (inactive) | > 10 µM (inactive) | > 10 µM (inactive) | – | > 10 µM (inactive) | > 10 µM (inactive) | > 10 µM (inactive) | > 10 µM (inactive) | > 10 µM (inactive) | > 10 µM (inactive) | > 10 µM (inactive) | > 10 µM (inactive) | > 10 µM (inactive) | > 10 µM (inactive) | > 10 µM (inactive) | > 10 µM (inactive) | > 10 µM (inactive) | > 10 µM (inactive) |
| O=C1CCCC/C1=C1\C(=O)Nc2cc(F)ccc21 | > 100 µM (inactive) | > 100 µM (inactive) | > 100 µM (inactive) | > 100 µM (inactive) | > 100 µM (inactive) | – | > 100 µM (inactive) | > 100 µM (inactive) | > 100 µM (inactive) | > 100 µM (inactive) | > 100 µM (inactive) | > 100 µM (inactive) | > 100 µM (inactive) | 35.3 µM (inactive) | > 100 µM (inactive) | > 100 µM (inactive) | > 100 µM (inactive) | > 100 µM (inactive) | > 100 µM (inactive) | > 100 µM (inactive) |
| S=C(/N=c1\sc(NCc2ccccc2)nc2sc3c(c12)CCN(N1CCc2c(sc4nc(NCc5ccccc5)s/c(=N\C(=S)NCc5ccccc5)c24)C1)C3)NCc1ccccc1 | 59.3 µM (inactive) | 45 µM (inactive) | 22.6 µM (inactive) | 27.4 µM (inactive) | 7.74 µM (inactive) | – | 36.7 µM (inactive) | 29.1 µM (inactive) | 37.7 µM (inactive) | 48.9 µM (inactive) | 87.5 µM (inactive) | 17.4 µM (inactive) | 14.3 µM (inactive) | 22.3 µM (inactive) | 38 µM (inactive) | 32.1 µM (inactive) | 21.5 µM (inactive) | 2.56 µM (inactive) | 23.4 µM (inactive) | 39.4 µM (inactive) |
| COc1ccc(CN2CC(C)(C)C2=O)c(OC)c1 | > 100 µM (inactive) | – | > 100 µM (inactive) | > 100 µM (inactive) | > 100 µM (inactive) | – | > 100 µM (inactive) | > 100 µM (inactive) | > 100 µM (inactive) | > 100 µM (inactive) | > 100 µM (inactive) | 70.8 µM (inactive) | > 100 µM (inactive) | > 100 µM (inactive) | > 100 µM (inactive) | > 100 µM (inactive) | > 100 µM (inactive) | > 100 µM (inactive) | > 100 µM (inactive) | > 100 µM (inactive) |
| O=C(CC(=O)C1CCOC1=O)C(=O)Nc1ccc(Cl)cc1 (configuration not stated) | > 100 µM (inactive) | > 100 µM (inactive) | > 100 µM (inactive) | > 100 µM (inactive) | > 100 µM (inactive) | – | > 100 µM (inactive) | > 100 µM (inactive) | > 100 µM (inactive) | > 100 µM (inactive) | > 100 µM (inactive) | > 100 µM (inactive) | – | > 100 µM (inactive) | > 100 µM (inactive) | > 100 µM (inactive) | > 100 µM (inactive) | > 100 µM (inactive) | > 100 µM (inactive) | > 100 µM (inactive) |
| O=C1/C(=C/c2ccccc2)CN(C(=O)OCC(Cl)(Cl)Cl)C/C1=C\c1ccccc1 | 1.83 µM (inactive) | 5.52 µM (inactive) | 1.6 µM (inactive) | 5.02 µM (inactive) | 1.33 µM (inactive) | 2.07 µM (inactive) | – | 1.98 µM (inactive) | 3.47 µM (inactive) | 4.46 µM (inactive) | 1.55 µM (inactive) | 3.86 µM (inactive) | 2.51 µM (inactive) | 1.09 µM (active) | 1.69 µM (inactive) | 3.73 µM (inactive) | 2.09 µM (inactive) | 1.71 µM (inactive) | 4.29 µM (inactive) | – |
| COC(=O)C1=COc2c(n(C)c3ccccc23)-c2ccccc21 | > 100 µM (inactive) | > 100 µM (inactive) | > 100 µM (inactive) | – | > 100 µM (inactive) | 4.21 µM (inactive) | – | 74 µM (inactive) | – | > 100 µM (inactive) | 71.1 µM (inactive) | 27.6 µM (inactive) | > 100 µM (inactive) | > 100 µM (inactive) | > 100 µM (inactive) | > 100 µM (inactive) | > 100 µM (inactive) | > 100 µM (inactive) | 81.1 µM (inactive) | – |
| COc1ccccc1C(=O)N(Cc1ccccc1)c1ccc(Cl)c(C(=O)OC(C)C)c1 | 14.3 µM (inactive) | > 63.1 µM (inactive) | 16.6 µM (inactive) | 19.4 µM (inactive) | 13.7 µM (inactive) | – | 15.6 µM (inactive) | 25 µM (inactive) | 5.93 µM (inactive) | 26.8 µM (inactive) | 11.7 µM (inactive) | 19.7 µM (inactive) | 14.4 µM (inactive) | 31.8 µM (inactive) | 21.2 µM (inactive) | 20.9 µM (inactive) | 14.6 µM (inactive) | 35.5 µM (inactive) | 30.6 µM (inactive) | 6.67 µM (inactive) |
| Cn1c(=O)c(C(=O)NC23CC4CC(CC(C4)C2)C3)c(O)c2ccccc21 | 18.5 µM (inactive) | – | 15.8 µM (inactive) | 28.8 µM (inactive) | 23.5 µM (inactive) | > 100 µM (inactive) | – | 19.9 µM (inactive) | > 100 µM (inactive) | 23.8 µM (inactive) | – | 28.4 µM (inactive) | > 100 µM (inactive) | 56.1 µM (inactive) | > 100 µM (inactive) | 46.1 µM (inactive) | 28.8 µM (inactive) | > 100 µM (inactive) | 26.7 µM (inactive) | – |
| O=C1OC(O)C(Oc2ccc(Cl)cc2)=C1Cl (configuration not stated) | > 100 µM (inactive) | > 100 µM (inactive) | > 100 µM (inactive) | > 100 µM (inactive) | > 100 µM (inactive) | – | > 100 µM (inactive) | > 100 µM (inactive) | > 100 µM (inactive) | > 100 µM (inactive) | – | > 100 µM (inactive) | > 100 µM (inactive) | > 100 µM (inactive) | > 100 µM (inactive) | > 100 µM (inactive) | > 100 µM (inactive) | > 100 µM (inactive) | > 100 µM (inactive) | > 100 µM (inactive) |
| [O-][n+]1c(-c2ccccc2)c2nc3ccccc3nc2c2ccccc21 | > 100 µM (inactive) | > 100 µM (inactive) | > 100 µM (inactive) | > 100 µM (inactive) | > 100 µM (inactive) | – | 5 µM (inactive) | > 100 µM (inactive) | > 100 µM (inactive) | > 100 µM (inactive) | > 100 µM (inactive) | 31.1 µM (inactive) | > 100 µM (inactive) | > 100 µM (inactive) | > 100 µM (inactive) | > 100 µM (inactive) | > 100 µM (inactive) | > 100 µM (inactive) | > 100 µM (inactive) | > 100 µM (inactive) |

From ChEMBL document CHEMBL1201862, “PubChem BioAssay data set” (2004)
